Data set [1] deals with T1, PARP-1 enzyme (Homo sapiens, UniProt P09874). As to the kind of experiment: In vitro filtration assay for PARP-1 inhibitory activity. The data set is classed as biochemical. As to the method:
In Vitro Filtration Assay for PARP-1 Inhibitory Activity
Compounds of the present invention were tested in an in vitro filtration assay assessing PARP-1 activity (triggered in the presence of nicked DNA) by means of its histone poly (ADP-ribosyl)ation activity using [^32P]-NAD as ADP-ribosyl donor. The radioactive ribosylated histones were precipitated by trichloroacetic acid (TCA) in 96-well filterplates and the incorporated [^32P] measured using a scintillation counter
A mixture of histones (stock solution: 5 mg/ml in H2O), NAD^+ (stock solution: 100 mM in H2O), and [^32P]-NAD^+ in incubation buffer (50 mM Tris/HCl, pH 8; 0.2 mM DTT; 4 mM MgCl2) was made. A mixture of the PARP-1 enzyme (5-10 μg/ml) and nicked DNA was also made. The nicked DNA was prepared as described in the in vitro SPA for PARP-1 inhibitory activity. Seventy-five μl of the PARP-1 enzyme/DNA mixture together with 1 μl of compound in DMSO and 25 μl of histones-NAD^+/[^32P]-NAD^+ mixture was added per well of a 96-well filterplate (0.45 μm, supplier Millipore). The final concentrations in the incubation mixture were 2 μg/ml for the histones, 0.1 mM for the NAD^+, […] (0.5 μC) for the [^32P]-NAD^+ and 2 μg/ml for the nicked DNA. Plates were incubated for 15 min. at room temperature and the reaction was terminated by the addition of 10 μl ice cold 100% TCA followed by the addition of 10 μl ice-cold BSA solution (1% in H2O). The protein fraction was allowed to precipitate for 10 min. at 4° C. and plates were vacuum filtered. The plates were subsequently washed with, for each well, 1 ml of 10% ice cold TCA, 1 ml of 5% ice cold TCA and 1 ml of 5% TCA at room temperature. Finally 100 μl of scintillation solution (Microscint 40, Packard) was added to each well and the plates were transferred to a TopCountNXT™ (supplier: Packard) for scintillation counting and values were expressed as counts per minute (cpm). For each experiment, controls (containing PARP-1 enzyme and DMSO without compound), a blank incubation (containing DMSO but no PARP-1 enzyme or compound) and samples (containing PARP-1 enzyme and compound dissolved in DMSO) were run in parallel. All compounds tested were dissolved and eventually further diluted in DMSO. In first instance, compounds were tested at a concentration of 10^−5M. […] In each test, the blank value was subtracted from both the control and the sample values. The control sample represented maximal PARP-1 enzyme activity. For each sample, the amount of cpm was expressed as a percentage of the mean cpm value of the controls. […] Herein the effects of test compounds are expressed as pIC50 (the negative log value of the IC50-value).

Data set [2] deals with T1, PARP-1 enzyme. As to the kind of experiment: In vitro scintillation proximity assay (SPA) for PARP-1 inhibitory activity. The class given is biochemical. As to the method: In Vitro Scintillation Proximity Assay (SPA) for PARP-1 Inhibitory Activity
Compounds of the present invention were tested in an in vitro assay based on SPA technology (proprietary to Amersham Pharmacia Biotech).
In principle, the assay relies upon the well established SPA technology for the detection of poly(ADP-ribosyl)ation of biotinylated target proteins, i.e histones. This ribosylation is induced using nicked DNA activated PARP-1 enzyme and [^3H]-nicotinamide adenine dinucleotide ([^3H]-NAD^+) as ADP-ribosyl donor.
As inducer of PARP-1 enzyme activity, nicked DNA was prepared. For this, 25 mg of DNA (supplier: Sigma) was dissolved in 25 ml DNAse buffer (10 mM Tris-HCl, pH 7.4; 0.5 mg/ml Bovine Serum Albumine (BSA); 5 mM MgCl2.6H2O and 1 mM KCl) to which 50 μl DNAse solution (1 mg/ml in 0.15 M NaCl) was added. After an incubation of 90 min. at 37° C., the reaction was terminated by adding 1.45 g NaCl, followed by a further incubation at 58° C. for 15 min. The reaction mixture was cooled on ice and dialysed at 4° C. for respectively 1.5 and 2 hours against 1.5 l of 0.2 M KCl, and twice against 1.5 l of 0.01 M KCl for 1.5 and 2 h respectively. The mixture was aliquoted and stored at −20° C. Histones (1 mg/ml, type II-A, supplier: Sigma) were biotinylated using the biotinylation kit of Amersham and stored aliquoted at −20° C. A stock solution of 100 mg/ml SPA poly(vinyl toluene) (PVT) beads (supplier: Amersham) was made in PBS. A stock solution of [^3H]-NAD^+ was made by adding 120 μl of [^3H]-NAD^+ (0.1 mCi/ml, supplier: NEN) to 6 ml incubation buffer (50 mM Tris/HCl, pH 8; 0.2 mM DTT; 4 mM MgCl2). A solution of 4 mM NAD^+ (supplier: Roche) was made in incubation buffer (from a 100 mM stock solution in water stored at −20° C.). The PARP-1 enzyme was produced using art known techniques, i.e. cloning and expression of the protein starting from human liver cDNA. Information concerning the used protein sequence of the PARP-1 enzyme including literature references can be found in the Swiss-Prot database under primary accession number P09874. Biotinylated histones and PVT-SPA beads were mixed and pre-incubated for 30 min. at room temperature. PARP-1 enzyme (concentration was lot dependent) was mixed with the nicked DNA and the mixture was pre-incubated for 30 min. at 4° C. Equal parts of this histones/PVT-SPA beads solution and PARP-1 enzyme/DNA solution were mixed and 75 μl of this mixture together with 1 μl of compound in DMSO and 25 μl of [^3H]-NAD^+ was added per well into a 96-well microtiterplate. The final concentrations in the incubation mixture were 2 μg/ml for the biotinylated histones, 2 mg/ml for the PVT-SPA beads, 2 μg/ml for the nicked DNA and between 5-10 μg/ml for the PARP-1 enzyme. After incubation of the mixture for 15 min. at room temperature, the reaction was terminated by adding 100 μl of 4 mM NAD^+ in incubation buffer (final concentration 2 mM) and plates were mixed.
The beads were allowed to sediment for at least 15 min. and plates transferred to a TopCountNXT™ (Packard) for scintillation counting, values were expressed as counts per minute (cpm). For each experiment, controls (containing PARP-1 enzyme and DMSO without compound), a blank incubation (containing DMSO but no PARP-1 enzyme or compound) and samples (containing PARP-1 enzyme and compound dissolved in DMSO) were run in parallel. All compounds tested were dissolved and eventually further diluted in DMSO. In first instance, compounds were tested at a concentration of 10^−5M. […] In each test, the blank value was subtracted from both the control and the sample values. The control sample represented maximal PARP-1 enzyme activity. For each sample, the amount of cpm was expressed as a percentage of the mean cpm value of the controls. […] Herein the effects of test compounds are expressed as pIC50 (the negative log value of the IC50-value).

Setting [3] is: [32P]-NAD, histones, nicked DNA, read-out: in vitro filter assay PARP-1 pIC50 (converted).
The mark [4] stands for this setting: [3H]-NAD+, biotinylated histones, nicked DNA, read-out: in vitro SPA assay PARP-1 pIC50 (converted).

T1 sequence (P09874 whole entry): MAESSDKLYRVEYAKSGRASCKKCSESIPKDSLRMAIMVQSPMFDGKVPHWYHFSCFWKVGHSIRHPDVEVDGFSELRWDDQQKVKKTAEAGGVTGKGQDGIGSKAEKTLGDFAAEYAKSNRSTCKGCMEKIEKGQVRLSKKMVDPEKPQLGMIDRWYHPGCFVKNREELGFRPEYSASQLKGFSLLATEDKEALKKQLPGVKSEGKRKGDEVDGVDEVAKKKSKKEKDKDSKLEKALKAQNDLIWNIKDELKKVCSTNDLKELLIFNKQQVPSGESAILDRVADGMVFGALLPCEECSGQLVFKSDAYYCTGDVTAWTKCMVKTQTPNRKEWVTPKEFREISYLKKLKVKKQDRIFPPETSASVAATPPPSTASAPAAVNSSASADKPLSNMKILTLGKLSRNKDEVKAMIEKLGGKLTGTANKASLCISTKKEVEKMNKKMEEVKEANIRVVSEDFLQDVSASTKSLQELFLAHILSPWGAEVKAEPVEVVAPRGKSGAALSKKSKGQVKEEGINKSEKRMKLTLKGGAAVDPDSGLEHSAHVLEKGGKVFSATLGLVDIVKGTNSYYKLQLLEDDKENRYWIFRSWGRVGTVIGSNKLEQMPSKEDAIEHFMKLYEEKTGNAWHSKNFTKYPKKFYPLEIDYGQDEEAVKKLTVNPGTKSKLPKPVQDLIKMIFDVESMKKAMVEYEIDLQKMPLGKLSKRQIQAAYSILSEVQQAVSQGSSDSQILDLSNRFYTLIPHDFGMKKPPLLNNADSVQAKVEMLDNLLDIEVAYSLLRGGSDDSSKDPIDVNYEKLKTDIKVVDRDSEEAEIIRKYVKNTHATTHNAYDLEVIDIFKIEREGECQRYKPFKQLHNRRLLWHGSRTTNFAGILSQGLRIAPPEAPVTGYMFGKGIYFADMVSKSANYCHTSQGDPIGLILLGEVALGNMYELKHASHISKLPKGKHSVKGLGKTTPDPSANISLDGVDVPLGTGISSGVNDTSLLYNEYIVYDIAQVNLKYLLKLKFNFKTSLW

Take `O=c1[nH]c(=O)n(C2CCN(CCCn3c(=O)[nH]c4ccccc43)CC2)c2ccccc12` [Compound 5]: the results for the IC50 in data set [1] (setting [3]) and in data set [2] (setting [4]) were 1740 nM and 348 nM, respectively.

For `O=C(c1ccc(F)cc1)C1CCN(CCCn2c(=O)[nH]c(=O)c3ccccc32)CC1` [Compound 11, 1-[3-[4-(4-fluorobenzoyl)-1-piperidinyl]propyl]-2,4-(1H,3H)-quinazolinedione], the IC50 in data set [1] (setting [3]) is 2720 nM; in data set [2] (setting [4]), 221 nM.

`O=C(CCCN1CCC(n2c(=O)[nH]c(=O)c3ccccc32)CC1)c1ccc(F)cc1` [Compound 2] registered a melting point of 195 °C. Further, the IC50 in data set [1] (setting [3]) is 1570 nM. The IC50 in data set [2] (setting [4]) is 257 nM.

On to `O=c1[nH]c(=O)n(CCN2CCC(O)(c3ccc(Cl)cc3)CC2)c2ccccc12` [Compound 6], for which the IC50 in data set [1] (setting [3]) was 1330 nM; in data set [2] (setting [4]), 167 nM.

As to `O=c1[nH]c(=O)n(CCCN2CCC(c3c[nH]c4ccccc34)CC2)c2ccccc12` [Compound 3], the melting point is 216.8 °C. In addition, the IC50 in data set [1] is 1030 nM. In data set [2], this compound had an IC50 of 136 nM.

The compound `O=c1[nH]c(=O)n(C2CCNCC2)c2ccccc12` [Compound 1] yielded a melting point of 253.7 °C. Moreover, in data set [1] (setting [3]), the IC50 was 465 nM. Moreover, the IC50 in data set [2] (setting [4]) is 204 nM.

Turning to `O=C(c1ccc(F)cc1)C1CCN(CCn2c(=O)[nH]c(=O)c3ccccc32)CC1` [Compound 10, 1-[2-[4-(4-fluorobenzoyl)-1-piperidinyl]ethyl]-2,4-(1H,3H)-quinazolinedione], the IC50 in data set [1] (setting [3]) is 1800 nM; in data set [2] (setting [4]), 220 nM.

With `O=c1[nH]c(=O)n(C2CCN(CC(O)C3CCc4ccccc4O3)CC2)c2ccccc12` (stereo in doubt) [Compound 9, 1-[1-[(2S)-2-[(2R)-3,4-dihydro-2H-1-benzopyran-2-yl]-2-hydroxyethyl]-4-piperidinyl]-2,4(1H,3H)-quinazolinedione], the IC50 in data set [1] (setting [3]) is 2180 nM; in data set [2] (setting [4]), 359 nM.

Take `O=c1[nH]c(=O)n(CCCN2CCC(O)(c3ccc(Cl)cc3)CC2)c2ccccc12` [Compound 7]: the IC50 in data set [1] (setting [3]) is 3240 nM; in data set [2] (setting [4]), 292 nM.

Source of the values: patent publication US9255080B2, “Quinazolinedione derivatives as PARP inhibitors” (Janssen Pharmaceutica NV, priority 2004, dated 2016).
